Measurements: patent US10822376B2, “Biologically active peptides” (Baxalta Incorporated, priority 2008, dated 2020)
In brackets after ≈: the same amount, converted by molar mass. *1 amine or outer side, *2 acyl side, *3 side chain or, on linkers, in order; H or OH if unused. Where a SMILES comes first, the peptide text is derived from it. Bridges are numbered along the chain shown (N, C = ends). [ ]: non-standard residue; d: D form. The star is where a group is joined. NH(CH2)3(OCH2CH2)2O(CH2)3NH = C(CN[*:1])COCCOCCOCCCN[*:2]; X2 = NCCCC[C@H](N)C(=O)NCCCOCCOCCOCCCN*; X1 = NC(=O)CCC(=O)NCCCOCCOCCOCCCN*; Suc = O=C(CCC(=O)[*:2])[*:1]; X3 = CC(=O)NCCCOCCOCCOCCCN*

How the values were obtained:
in vitro [1] = conditions: human, pH 7.4
in vitro [2] = conditions: mouse, pH 7.4
[3] = tested on: human FVIII inhibited plasma; assay: Defined Intrinsic Thrombin Generation Assay (DITGA, triggered by FXIa and phospholipids); type: biochemical; conditions: for Activity in the Defined Intrinsic Thrombin Generation Assay: summary
Excerpt: (§1) The intrinsic pathway of thrombin generation may be assayed in a thrombin generation assay by including FXIa and phospholipids. In such an assay, which is similar to an activated partial thromboplastin time (aPTT) test, thrombin generation is solely directed through the intrinsic pathway, and is FVIII dependent. A suitable assay is the Defined Intrinsic Thrombin Generation Assay described below. Alternatively, by employing low concentrations of TF and phospholipids instead of FXIa and phospholipids, thrombin is generated by both the extrinsic (tissue factor) and the intrinsic pathways. This form of the thrombin generation assay is the more physiologic one, as both thrombin generation pathways are involved; it is partially FVIII dependent. A suitable assay is the Defined Dual-Pathway Thrombin Generation Assay.
The Defined Intrinsic Thrombin Generation Assay is performed as follows. FVIII activity of human plasma is inhibited by incubating (2 hours, 37° C.) 40 μl of human normal plasma with 10 μl heat inactivated anti-human FVIII plasma raised in goat (600 BU/ml, 6 hours incubated at 56° C.). […] Instead of FVIII-inhibited plasma, FVIII inhibitor patient plasma or several depleted plasmas can be used. The micro-plate is immediately put into a GENios Plus (Tecan) or Safire 2 (Tecan) fluorescence reader and the fluorescence signal (ex 340 nm/em 440 nm) is followed kinetically by reading the plate every 21 seconds.
For calculation of activity equivalent units experiments are performed with dilutions of Factor Eight Inhibitor Bypassing Agent (FEIBA, Baxter AG), Immunate (human FVIII, purified plasma derived) reference standard (Baxter AG) or Recombinate standard (human FVIII, purified recombinant, Baxter AG). A linear fit of the logarithm of FEIBA (FVIII) concentration plotted against thrombin generation time at peak thrombin results in a standard curve. With this curve FEIBA (FVIII) equivalent activity is calculated for a defined peptide concentration. […] Thus, where a concentration of 100 μM is given, the actual concentration in the final assay volume in 40 μM.
Compounds were screened using the “Defined intrinsic thrombin generation assay” in which thrombin generation was quantified in vitro in FVIII-inhibited human plasma in the presence of Factor XIa and phospholipid vesicles. Further compounds were screened in the above assay, and in the “Defined dual-pathway thrombin generation assay” using tissue factor and phospholipids instead of Factor XIa and phospholipids, as described in the specific description.
Various concentrations of each peptide were tested in the defined intrinsic thrombin generation assay using human FVIII inhibited plasma.

Plasma stability = conditions: human
Protocol: Half-life of compounds in human or mouse plasma, or percentage of compound remaining after an incubation in human or mouse plasma, is determined as follows. In the experimental procedure, test compound concentrations are 5 μM, prepared from test compound stock solutions of 10 mM in DMSO. Propantheline is used as a standard. […] All of the samples are incubated in a water bath at 37° C. […] After a chosen duration of incubation (generally at t=60 min) each sample is mixed with a further 500 μl acetonitrile. The samples are mixed on a vortex mixer for 30 s and placed on ice for 10 min and collected for centrifugation. Samples are centrifuged at 20 000 g for 10 min at 4° C. 500 μl supernatant is transferred into a new 1.5 ml Eppendorf tube and an equal volume of acetonitrile is added. The sample is mixed again for 30 s using a vortex mixer. After a second centrifugation step (20 000 g, 10 min, 4° C.) 250 μl of the supernatant is transferred into HPLC glass vials for HPLC-MS analysis. Conditions for performing HPLC are as follows: Injection-volume is set to 20 μl. Temperature is set to 25° C. A linear gradient from 95:5 to 5:95 water:acetonitrile both containing 0:05% trifluoroacetic acid (TFA) (v/v) is applied at a flow rate of 0.3 ml/min for 10 min. The PDA-detector is scanning from 210-400 nm.

physchem = conditions: for solubility kinetic: pH 7.4
Protocol: Aqueous solubility is measured in PBS at pH 7.4 either in an assay provided by Cerep (France, Catalog ref. 900-11a) or according to the following protocol. The aim of this procedure is to determine the solubility of a drug candidate (analyte) in a buffer, by estimating the saturation concentration of the candidate in the buffer using HPLC. A known concentration of the candidate in an organic solvent is used as a standard. A stock solution of the test compound in DMSO must be prepared as the initial step. […] DMSO stock-solutions are diluted to a final concentration of 50 μM with DMSO (100% reference-solution) and buffer (test-solution) to provide a minimum volume of 500 μL of each. Both solutions are shaken at 25° C. at 950 rpm in an Eppendorf “thermomixer comfort” for at least 60 min. The suspension is centrifuged at 22 330 g for at least two min and 100 μL of the supernatant is transferred into polypropylene-inserts placed in glass vials and closed by snap-ring caps. Alternatively the solutions can be prepared in microtiter plates with half of the previously described starting solvent volume. For the determination of the solubility all samples are analyzed by HPLC in triplicate. Injection volume is at least 10 μL. The obtained data are analyzed by “Chemstation-software” (Agilent, Waldbronn, Germany). The peaks from the analyses of the organic solutions are integrated and the arithmetic mean is reported as “AUC 1” (reference area of known amount injected at the HPLC). […] The ratio of the mean “AUC 2” and “AUC 1” is calculated and thus the percentage of the dissolved amount of compound in buffer is obtained and solubility can be reported in μM.

FVIII inhibited plasma = assay: Defined Dual-Pathway Thrombin Generation Assay (DDPTGA, reagent C high), FVIII inhibited plasma; type: biochemical, human; conditions: for Peak IIa FEIBA EU / Peak IIa FVIIa EU / Peak Time FEIBA EU / Peak Time FVIIa EU: FVIII inhibited plasma; for Activity in the Defined Dual-Pathway Thrombin Generation Assay: summary, FVIII inhibited or deficient plasma
Excerpt: as §1
(§2) Preferably, Reagent C high is used.
(§3) Tissue factor dependency of peak thrombin generation and thrombin peak time was characterised in a composition containing a fixed concentration of phospholipid (namely 3.2 μM). Phospholipid dependency was characterised in a composition containing a fixed concentration of tissue factor (namely 7.2 μM). Peak time (time to peak thrombin generation) was dependent on the concentration of phospholipid or tissue factor. The final version of this assay is as described in the specific description, in which 10 μl reagent C high containing (32 μM phospholipid and 71.6 μM tissue factor) is used in a total volume of 100 μl.
(§4) Further studies were conducted using 3.2 μM phospholipid and 7.2 μM tissue factor in FVIII deficient or inhibited plasma, to characterise the effect on peak thrombin generation and thrombin peak time of various coagulation factor preparations. These studies provided a basis from which to compare the efficacy of the compounds in the assay. Briefly, rFVIII (Recombinate® FVIII from Baxter) was tested at 0, 5, 10, 20, 40 and 80 mU/ml in FVIII deficient plasma. FEIBA was tested at 0, 8, 16, 31, 63 and 125 mU/ml in FVIII inhibited plasma. FVIIa was tested at 0, 0.1, 0.4, 1.6, 6.3 and 25 nM in FVIII inhibited plasma. […] Peak thrombin increased and both the lag time and the thrombin peak time decrease.

FVIII deficient plasma = assay: Defined Dual-Pathway Thrombin Generation Assay (DDPTGA, reagent C high), FVIII deficient plasma; type: biochemical, human; conditions: FVIII deficient plasma
Excerpt: as §1, §2, §3, §4

[4] = tested on: Factor VIII deficient human plasma; assay: DDPTGA (reagent B) in FVIII depleted plasma; type: biochemical; conditions: compounds at 50 μM and 80, 90 or 100 μM; further: key: '+' means stimulates; '−' means does not stimulate
Excerpt: as §2

Compound	remaining at 0.5 h, 5 μM (Plasma stability)	solubility kinetic (physchem)	Activity in the Defined Intrinsic Thrombin Generation Assay [3]	Thrombin peak time given as FEIBA equivalent activity ([3]; peptide 6.25 μM)	Thrombin peak time given as FEIBA equivalent activity ([3]; peptide 12.5 μM)	Thrombin peak time given as FEIBA equivalent activity ([3]; peptide 25 μM)	Thrombin peak time given as FEIBA equivalent activity ([3]; peptide 50 μM)	Thrombin peak time given as FEIBA equivalent activity ([3]; peptide 100 μM)	also measured
CC(=O)CC(c1ccccc1)c1c(O)c2ccccc2oc1=O (stereo not shown) [Warfarin, warfarin]									recovery at 6 h, 10 μM (in vitro [1]): 99.3%; recovery at 6 h, 10 μM (in vitro [2]): 88.6%
CC[C@H](C)[C@H](NC(=O)[C@H](CCC(=O)O)NC(=O)[C@H](Cc1ccccc1)NC(=O)[C@H](Cc1ccc(O)cc1)NC(=O)[C@H](CC(C)C)NC(=O)[C@H](CC(=O)O)NC(=O)[C@H](Cc1c[nH]c2ccccc12)NC(=O)[C@@H](NC(=O)[C@H](CC(=O)O)NC(=O)[C@H](Cc1ccccc1)NC(=O)[C@H](CCC(=O)O)NC(=O)[C@H](CCSC)NC(=O)[C@H](CCCNC(=N)N)NC(=O)CCC(=O)NCCCOCCOCCOCCCN)C(C)C)C(=O)N[C@H](C(=O)N[C@@H](Cc1c[nH]c2ccccc12)C(=O)NCCCOCCOCCOCCCNC(=O)CCC(N)=O)C(C)C [Peptide A08] ({NH(CH2)3(OCH2CH2)2O(CH2)3NH-Suc}-RMEFDVWDLYFEIVW-X1)	70%	11 µM (≈ 29.2 µg/mL)	possess activity	563 mU/ml	656 mU/ml	764 mU/ml	958 mU/ml	1213 mU/ml	Peak IIa FEIBA EU (FVIII inhibited plasma; peptide 50 μM): BLS (BLS = below lowest standard.); Peak IIa FVIIa EU (FVIII inhibited plasma; peptide 50 μM): BLS (BLS = below lowest standard.); Peak Time FEIBA EU (FVIII inhibited plasma; peptide 50 μM): 9.1 mU/ml; Peak Time FVIIa EU (FVIII inhibited plasma; peptide 50 μM): 0.4 nM; Activity in the Defined Dual-Pathway Thrombin Generation Assay (FVIII inhibited plasma): possess activity; Peak IIa FVIII EU (FVIII deficient plasma; peptide 50 μM): BLS (BLS = below lowest standard.); Peak Time FVIII EU (FVIII deficient plasma; peptide 50 μM): BLS (BLS = below lowest standard.); Stimulation of thrombin generation [4]: +
Ac-VWDLYFEIVW-NH2 [Peptide A19]	99%	14 µM	possess activity	383 mU/ml	495 mU/ml	525 mU/ml	663 mU/ml	826 mU/ml	
Ac-RMDFDVWDLYFEIVW-NH2 [Peptide A03]	92%	110 µM	possess activity	477 mU/ml	639 mU/ml	762 mU/ml	1069 mU/ml	1396 mU/ml	Peak IIa FEIBA EU (FVIII inhibited plasma; peptide 50 μM): BLS (BLS = below lowest standard.); Peak IIa FVIIa EU (FVIII inhibited plasma; peptide 50 μM): BLS (BLS = below lowest standard.); Peak Time FEIBA EU (FVIII inhibited plasma; peptide 50 μM): BLS (BLS = below lowest standard.); Peak Time FVIIa EU (FVIII inhibited plasma; peptide 50 μM): BLS (BLS = below lowest standard.); Peak IIa FEIBA EU (FVIII inhibited plasma; peptide 100 μM): BLS (BLS = below lowest standard.); Peak IIa FVIIa EU (FVIII inhibited plasma; peptide 100 μM): BLS (BLS = below lowest standard.); Peak Time FEIBA EU (FVIII inhibited plasma; peptide 100 μM): BLS (BLS = below lowest standard.); Peak Time FVIIa EU (FVIII inhibited plasma; peptide 100 μM): BLS (BLS = below lowest standard.); Activity in the Defined Dual-Pathway Thrombin Generation Assay (FVIII inhibited plasma): possess activity; Peak IIa FVIII EU (FVIII deficient plasma; peptide 50 μM): BLS (BLS = below lowest standard.); Peak Time FVIII EU (FVIII deficient plasma; peptide 50 μM): BLS (BLS = below lowest standard.); Peak IIa FVIII EU (FVIII deficient plasma; peptide 100 μM): BLS (BLS = below lowest standard.); Peak Time FVIII EU (FVIII deficient plasma; peptide 100 μM): BLS (BLS = below lowest standard.)

More lines, main results first:

remaining at 0.5 h, 5 μM (Plasma stability)	solubility kinetic (physchem)	Compound	Activity in the Defined Intrinsic Thrombin Generation Assay [3]	Thrombin peak time given as FEIBA equivalent activity ([3]; peptide 6.25 μM)	Thrombin peak time given as FEIBA equivalent activity ([3]; peptide 12.5 μM)	Thrombin peak time given as FEIBA equivalent activity ([3]; peptide 25 μM)	Thrombin peak time given as FEIBA equivalent activity ([3]; peptide 50 μM)	Thrombin peak time given as FEIBA equivalent activity ([3]; peptide 100 μM)	also measured
89%	195 µM (≈ 278 µg/mL)	CC[C@@H](C)[C@@H](NC(=O)[C@@H](CO)NC(C)=O)C(=O)N[C@H](CCSC)C(=O)N[C@H](Cc1ccccc1)C(=O)N[C@H](Cc1c[nH]c2ccccc12)C(=O)N[C@H](Cc1ccc(O)cc1)C(=O)N[C@H](CC(=O)O)C(=O)N[C@H](CCC(=O)O)C(=O)N[C@H](Cc1ccc(O)cc1)C(=O)N[C@H](CCC(=O)O)C(N)=O [Peptide B07, Ac-simfwydeye-NH2] (Ac-[dS][dI][dM][dF][dW][dY][dD][dE][dY][dE]-NH2)	possess activity						
93%	48 µM (≈ 88.8 µg/mL)	CSCC[C@H]1NC(=O)[C@@H](Cc2ccc(O)cc2)NC(=O)[C@H](NC(=O)CCC(=O)NCCCOCCOCCOCCCNC(=O)[C@@H](N)CCCCN)CSSC[C@H](C(=O)N[C@H](Cc2ccc(O)cc2)C(=O)N[C@H](CCC(=O)O)C(N)=O)NC(=O)[C@@H](CC(=O)O)NC(=O)[C@@H](Cc2ccc(O)cc2)NC(=O)[C@@H](Cc2c[nH]c3ccccc23)NC(=O)[C@@H](Cc2ccccc2)NC1=O [Peptide B06, K-TTDS-(cymfwydc)-ye-NH2] ({X2-Suc}-[dC][dY][dM][dF][dW][dY][dD][dC][dY][dE]-NH2; disulfide 1-8)	possess activity		95 mU/ml	157 mU/ml	172 mU/ml	378 mU/ml	Thrombin peak time given as FEIBA equivalent activity ([3]; peptide 200 μM): 902 mU/ml; solubility (physchem; pH 7.4, Solubility in PBS pH 7.4): ≥ 25 µM
112%	174 µM (≈ 307 µg/mL)	CSCC[C@H]1NC(=O)[C@@H](Cc2ccc(O)cc2)NC(=O)[C@H](NC(=O)CCC(=O)NCCCOCCOCCOCCCNC(C)=O)CSSC[C@H](C(=O)N[C@H](Cc2ccc(O)cc2)C(=O)N[C@H](CCC(=O)O)C(N)=O)NC(=O)[C@@H](CC(=O)O)NC(=O)[C@@H](Cc2ccc(O)cc2)NC(=O)[C@@H](Cc2c[nH]c3ccccc23)NC(=O)[C@@H](Cc2ccccc2)NC1=O [Peptide B05, Ac-TTDS-(cymfwydc)-ye-NH2] ({X3-Suc}-[dC][dY][dM][dF][dW][dY][dD][dC][dY][dE]-NH2; disulfide 1-8)	possess activity		126 mU/ml	152 mU/ml	270 mU/ml	649 mU/ml	Thrombin peak time given as FEIBA equivalent activity ([3]; peptide 200 μM): 1089 mU/ml
